Reference: PubChem BioAssay AID540269 (Sanford-Burnham Center for Chemical Genomics, 2011)
Calls of active or inactive are those of the source. No rule for the calls is given here.

Target: glucose-6-phosphate dehydrogenase-6-phosphogluconolactonase (Plasmodium falciparum 3D7)
Assay: PfG6PD enzyme inhibitors, kinetic NADPH readout, dose response, orthogonal assay, biochemical, kinetic NADPH detection (AID 540269)
Settings: purified PfG6PD-6PGL

| SMILES | IC50 |
| --- | --- |
| O=C1C=CC(=O)N1c1ccc2c(c1)C(NC(=O)C(F)(F)F)c1ccccc1-2 (stereo not drawn) | > 80 µM (inactive) |
| Cc1ccnc(-n2sc3ccccc3c2=O)n1 | 26.4 µM |
| CCN(CC)CCNC(=O)CCCCn1c(=S)[nH]c2c([nH]c3ccc(OC)cc32)c1=O | 15.7 µM |
| CCC(C)(C)c1nnc(NC(=O)C2CCN(C(=O)c3ccco3)CC2)s1 | > 80 µM (inactive) |
| Cc1c(Cl)c([N+](=O)[O-])nn1Cc1ccc(C(=O)N/N=C\c2cccc(Br)c2)o1 | > 80 µM (inactive) |
| Cc1cc(C)c2c(=N)c3ccccc3n(CCCCCCCCn3c4ccccc4c(=N)c4c(C)cc(C)nc43)c2n1 | 50.3 µM |
| O=[N+]([O-])c1ccc(Sc2cccc3cccnc23)c2cccnc12 | > 80 µM (inactive) |
| Cc1c(N=C2C=C(Br)C(=O)C(Br)=C2)c(=O)n(-c2ccccc2)n1C | > 80 µM (inactive) |
| Cc1ccsc1/C=N\NC(=O)CC(=O)NCc1ccccc1 | > 80 µM (inactive) |
| COc1cccc(C(=O)Nc2nnc(S(=O)(=O)N(C)Cc3ccccc3)s2)c1 | 18.6 µM |
| COc1cc(O)c(C(=O)O)c(-c2cc(O)c(O)cc2C)c1 | 19.4 µM |
| CCC(c1ccc(O)c(O)c1)C(CC)c1ccc(O)c(O)c1 (stereo not drawn) | > 80 µM (inactive) |
| C#CCCc1cscc1/C=[N+](\[O-])c1ccc(C(=O)OCC)cc1 | 36.4 µM |
| Cc1[nH]c2ccccc2c1/C=N/Nc1nncn1N | > 80 µM (inactive) |
| Cc1ccc(NNS(=O)(=O)c2ccc(C)cc2)cc1 | 36.8 µM |
| O=C(Cc1ccccc1)NCC(=O)OCC(=O)c1ccc([N+](=O)[O-])cc1 | 57.9 µM |
| O=C(NC1=CC(=O)c2ccccc2C1=O)c1ccccc1 | 38.2 µM |
| CCN1CCN(c2nc(C)nc3c2sc(=S)n3C)CC1 | > 80 µM (inactive) |
| C[C@]12CC[C@@H]3c4ccc(O)c(O)c4CC[C@H]3[C@@H]1CC[C@@H]2O | 41.3 µM |
| Cc1cc(C)c2c(=O)n(CC(=O)Nc3ccc(Cl)cc3)sc2n1 | > 80 µM (inactive) |
| CCn1c2ccccc2c2nc3cc(S(=O)(=O)N4CCOCC4)ccc3nc21 | > 80 µM (inactive) |
| CN(CCO)c1cc(Sc2nc3ccccc3s2)c2nonc2c1[N+](=O)[O-] | > 80 µM (inactive) |
| CC(=O)Nc1cc([N+](=O)[O-])ccc1OCc1ccccc1 | > 80 µM (inactive) |
| Cc1cccc(C(=O)Nc2nnc(S(=O)(=O)N3CCCCCC3)s2)c1 | 16.9 µM |
| Cc1cc(O)c(C(C)C)cc1N=Cc1ccc(N(C)C)cc1 | > 80 µM (inactive) |

| SMILES | IC50 |
| --- | --- |
| O=c1[nH]c2ccccc2n2c(-c3ccccc3)nnc12 | 13.2 µM |
| C[C@]12CC[C@@H]3c4cc(O)c(O)cc4CC[C@H]3[C@@H]1CC[C@@H]2O | 25 µM |
| Cc1ccc(C(=O)NCC(=O)NCC(=O)OCC(=O)c2ccc([N+](=O)[O-])cc2)cc1 | > 80 µM (inactive) |
| COc1cc(NCCCn2cnc(C(=O)Nc3ccc(C)c(C)c3)n2)cc(OC)c1OC | > 80 µM (inactive) |
| Cc1cnc(C=NNC(N)=S)c2cccc(N)c12 | > 80 µM (inactive) |
| CN1CCN(C(=S)c2ccc([N+](=O)[O-])cc2)CC1 | > 80 µM (inactive) |
| CCN(CC)c1ccc(C(=C2C=CC(=[N+](CC)CC)C=C2)c2ccccc2)cc1 | > 80 µM (inactive) |
| O=C(COC(=O)c1ccc2c(c1[N+](=O)[O-])C(=O)c1ccccc1C2=O)NC1CC1 | > 80 µM (inactive) |
| Oc1cc(CNCc2ccccc2)c(O)cc1CNCc1ccccc1 | 53.7 µM |
| C[c-]1[c-](C)[c-](C)[c-](C)[c-]1C.[Fe].c1cc2nccc(N3CCCC3)[c-]2c1 (stereo not drawn) | 52.9 µM |
| O=S(c1ccccc1O)S(=O)c1ccccc1O (stereo not drawn) | 36.4 µM |
| C[n+]1c(-c2ccccc2)cc2c(=Cc3ccc([N+](=O)[O-])cc3)c3ccccc3n21 | 51.5 µM |
| O=C(COC(=O)c1cnccn1)c1ccc([N+](=O)[O-])cc1 | > 80 µM (inactive) |
| COc1cccc2nc3cc(C)c(C)cc3nc12 | > 80 µM (inactive) |
| Cn1c(=O)c2c([nH]c(=S)n2CCCc2ccccc2)n(C)c1=O | 72.8 µM |
| C=C1C(=O)O[C@@H]2C[C@@H](C)[C@@H]3C=CC(=O)[C@@]3(C)[C@@H](OC(=O)CC(=O)O[C@H]3[C@@H]4C(=C)C(=O)O[C@@H]4C[C@@H](C)[C@@H]4C=CC(=O)[C@]43C)[C@H]12 | > 80 µM (inactive) |
| Cc1cccc(C(=O)Nc2sc3c(c2C(=O)O)CCCC3)c1 | 32.9 µM |
| O=C(Nc1nnc(S(=O)(=O)N2CCCCC2)s1)c1ccc(Cl)cc1 | 25.6 µM |
| CCOC(=O)c1c(OCC)[nH]c2c1cc(O)c1ccccc12 | > 80 µM (inactive) |
| NS(=O)(=O)c1ccc(-c2ccc(C=C3C(=O)NC(=O)NC3=O)o2)cc1 | 40.2 µM |
| Cc1ccc(C(=O)Nc2nnc(S(=O)(=O)N3CCC(C)CC3)s2)cc1 | 24.1 µM |
| Cc1ccc(S(=O)(=O)Nc2nc(C)c(C(=O)N/N=C/c3ccccc3)s2)cc1 | 31 µM |
| CCn1c(SCc2nc3scc(-c4ccccc4)c3c(=O)[nH]2)nnc1-c1cccs1 | 58 µM |
| COc1ccc(/C=C/c2nc3ccccc3n2C)cc1 | 17.7 µM |
| COc1cc(CN2CCN(CCCc3ccccc3)C(CCO)C2)cc(OC)c1O (stereo not drawn) | > 80 µM (inactive) |

| SMILES | IC50 |
| --- | --- |
| COc1ccc(N2CSC3=C(C#N)C(c4ccc(OC)c(OC)c4)CC(=O)N3C2)c(OC)c1 (stereo not drawn) | > 80 µM (inactive) |
| CC(=O)c1cccc(NC(=O)c2cnn(-c3ccccc3)c2C)c1 | 58.4 µM |
| Oc1ccc(NCc2ccccc2OCc2ccccc2)cc1 | 53.9 µM |
| CC(=NNC(=S)N1CCN(c2ccccn2)CC1)c1nccs1 | > 80 µM (inactive) |
| O=C(Cn1sc2ccccc2c1=O)Nc1ccc(Cl)cc1 | 16 µM |
| Cc1ccc2nc(-c3ccc(NC(=S)NC4CC(C)(C)NC(C)(C)C4)cc3)sc2c1 | > 80 µM (inactive) |
| COc1cc(N2C(=O)C=CC2=O)ccc1N1C(=O)C=CC1=O | 19.5 µM |
| CC1=CC(=NOC(=O)/C=C/c2ccccc2)C=C(C)C1=O | > 80 µM (inactive) |
| Cc1cc(C)c2c(=O)n(CC(=O)Nc3ccc(Br)c(C)c3)sc2n1 | 58.5 µM |
| CC1(OC(=O)C2CCCC2)C(=O)C=C2C=C(c3ccsc3)N(CC3CC3)C=C2C1=O (stereo not drawn) | > 80 µM (inactive) |
| Cc1no[n+]([O-])c1COc1cccc(/C=N/Nc2nncn2N)c1 | 30.5 µM |
| CCN(CC)c1ccc(C(=C2C=CC(=[N+](CC)CC)C=C2)c2ccc(N(CC)CC)cc2)cc1 | 16.1 µM |
| CC1=CC(C)(C)Nc2ccc(OC(=O)CN3C(=O)CCC3=O)cc21 | 63.2 µM |
| COc1cc(C(=O)ON=C2C=C(C)C(=O)C(C)=C2)cc(OC)c1OC | > 80 µM (inactive) |
| CN(C)c1ccc(Cc2cc3c(O)ccc(O)c3cc(Cc3ccc(N(C)C)cc3)c2=O)cc1 | 54.7 µM |
| CN(C)S(=O)(=O)c1cccc(-n2sc3ccccc3c2=O)c1 | 12.8 µM |
| O=C1OC(c2ccc3ccccc3c2O)(c2ccc3ccccc3c2O)c2ccccc21 | > 80 µM (inactive) |
| N#CC(C#N)=C1C=CC=CN1/C(=C\c1ccccc1Cl)C(=O)c1ccccc1 | > 80 µM (inactive) |
| O=C1Nc2ccccc2C(=O)C1(Cl)Cc1ccccc1 (stereo not drawn) | > 80 µM (inactive) |
| COc1cc(-c2cc(OC)c(O)c(OC)c2)cc(OC)c1O | > 80 µM (inactive) |
| O=C(OCC(=O)c1ccc([N+](=O)[O-])cc1)/C(=C\c1ccc(Cl)cc1)NC(=O)c1ccccc1 | > 80 µM (inactive) |
| COCCn1nnnc1C(c1cc2cc(OC)c(OC)cc2[nH]c1=O)N1CCN(c2ccc(O)cc2)CC1 (stereo not drawn) | 30.3 µM |
| Cc1cccc(-n2c(=S)[nH]c3sc4c(c3c2=O)CCc2ccccc2-4)c1 | 40.9 µM |
